Laboratory results taken from ChEMBL document CHEMBL5053552, “Design, Synthesis, and Antiviral activity of 1,2,3,4-Tetrahydropyrimidine derivatives acting as novel entry inhibitors to target at "Phe43 cavity" of HIV-1 gp120” (Bioorg Med Chem, 2021).
pIC50: −log10 of the molar value. Active and inactive are the calls of the source. The rule behind the calls is not given here.

Experiments:
[1] = test system: Human immunodeficiency virus 1; assay: Antiviral activity against HIV1 931N101 infected in human SupT1 cells assessed as inhibition of viral entry mesaured after 96 hrs by p24- ELISA assay; assay type: functional, organism-based; settings: Human immunodeficiency virus 1, 931N101, SUP-T1, 96 h
[2] = Cytotoxicity against human SUP-T1 cells assessed as reduction in cell viability measured after 16 hrs by MTT assay; assay type: cell-based
SUP-T1 = assay: Inhibition of HIV1 gp120 interaction with CD4 in human SUP-T1 cells expressing CCR5, CXCR4 assessed as decrease in viral entry by fluorescent microscopic assay; assay type: cell-based; settings: Human immunodeficiency virus 1
[3] = test system: Human immunodeficiency virus 1; assay: Antiviral activity against HIV1 931N101 infected in human SupT1 cells assessed as inhibition of viral entry at 2.2 uM mesaured after 96 hrs by p24- ELISA assay relative to control; assay type: functional; settings: Human immunodeficiency virus 1, 931N101, SUP-T1

CCOC(=O)C1=C(C)NC(=S)NC1c1cccc(Cl)c1 (configuration not stated)
pIC50 [1]: 5.46 | CC50 at 16 h [2]: 97.6 µM

CCOC(=O)C1=C(C)NC(=S)NC1c1ccc(O)cc1 (configuration not stated)
pIC50 [1]: 5.40 | CC50 at 16 h [2]: 88.9 µM

CCOC(=O)C1=C(C)NC(=O)NC1c1ccc(O)c(OC)c1 (configuration not stated)
inhibition (SUP-T1): Active | pIC50 [1]: 5.07 | CC50 at 16 h [2]: 141 µM

CCOC(=O)C1=C(C)NC(=O)NC1c1ccc(O)cc1 (configuration not stated)
pIC50 [1]: 5.22 | CC50 at 16 h [2]: 132 µM

CCOC(=O)C1=C(C)NC(=S)NC1c1ccc(OC)cc1 (configuration not stated)
pIC50 [1]: 5.35 | CC50 at 16 h [2]: 110 µM

CCOC(=O)C1=C(C)NC(=O)NC1c1ccc(OC)cc1 (configuration not stated)
pIC50 [1]: 5.21 | CC50 at 16 h [2]: 103 µM

CCOC(=O)C1=C(C)NC(=S)NC1c1ccc(O)c(OC)c1 (configuration not stated)
inhibition (SUP-T1): Active | pIC50 [1]: 5.66 | inhibition at 2.2 µM [3]: 50% | CC50 at 16 h [2]: 101 µM

CCOC(=O)C1=C(C)NC(=O)NC1c1cc(Br)ccc1O (configuration not stated)
pIC50 [1]: 5.28 | CC50 at 16 h [2]: 138 µM

CCOC(=O)C1=C(C)NC(=S)NC1c1ccccc1C (configuration not stated)
pIC50 [1]: 5.28 | CC50 at 16 h [2]: 124 µM

CCOC(=O)C1=C(C)NC(=S)NC1c1ccc(Br)cc1 (configuration not stated)
pIC50 [1]: 5.38 | CC50 at 16 h [2]: 136 µM

CCOC(=O)C1=C(C)NC(=S)NC1c1cc(Br)ccc1O (configuration not stated)
pIC50 [1]: 5.43 | CC50 at 16 h [2]: 83.4 µM

CCOC(=O)C1=C(C)NC(=O)NC1c1ccccc1C (configuration not stated)
pIC50 [1]: 5.02 | CC50 at 16 h [2]: 136 µM
